Test results from patent US20240399142A1, “Methods Of Using Alternating Electric Fields And Checkpoint Inhibitors” (NOVOCURE GMBH, priority 2023, published 2024).

Experiment: LUNAR study safety: adverse events per CTCAE version 4.03, safety population
Assay type: in vivo, human
[1] = Grade 3, nervous system disorders
[2] = Grade 3, renal and urinary disorders
[3] = Grade 3, respiratory, thoracic, and mediastinal disorders
[4] = Grade 3, skin and subcutaneous tissue disorders

Description: Safety and treatment data were compiled from all patients who received any study therapy and were analyzed according to the actual treatment received. Analyses were performed using SAS software, version 9.4 (SAS Institute).

CC(=O)O[C@@]12CO[C@@H]1C[C@H](O)[C@@]1(C)C(=O)[C@H](O)C3=C(C)[C@@H](OC(=O)[C@H](O)[C@@H](NC(=O)OC(C)(C)C)c4ccccc4)C[C@@](O)([C@@H](OC(=O)c4ccccc4)[C@H]21)C3(C)C [Docetaxel, docetaxel]
Sepsis (Grade 3): 1 (1.5) no. (%)
Septic shock (Grade 3): 0 no. (%)
Skin infection (Grade 3): 0 no. (%)
Stomatitis (Grade 3): 0 no. (%)
Subileus (Grade 3): 0 no. (%)
Thrombocytopenia (Grade 3): 0 no. (%)
Thyroiditis subacute (Grade 3): 0 no. (%)
Tumor pain (Grade 3): 0 no. (%)
Upper respiratory tract infection (Grade 3): 0 no. (%)
Urinary tract infection (Grade 3): 0 no. (%)
Urosepsis (Grade 3): 0 no. (%)
Vomiting (Grade 3): 0 no. (%)
Weight decreased (Grade 3): 0 no. (%)
White blood cell count decreased (Grade 3): 5 (7.4) no. (%)
Brain oedema [1]: 0 no. (%)
Cauda equina syndrome [1]: 0 no. (%)
Dysarthria [1]: 0 no. (%)
Embolic stroke [1]: 0 no. (%)
Hemiparesis [1]: 1 (1.5) no. (%)
Motor dysfunction [1]: 0 no. (%)
Nervous system disorder [1]: 0 no. (%)
Neurologic neglect syndrome [1]: 1 (1.5) no. (%)
Neurotoxicity [1]: 0 no. (%)
Peripheral sensorimotor neuropathy [1]: 2 (2.9) no. (%)
Quadriparesis [1]: 0 no. (%)
Seizure [1]: 0 no. (%)
Syncope [1]: 2 (2.9) no. (%)
Vocal cord paralysis [1]: 0 no. (%)
Anxiety (Grade 3, psychiatric disorders): 0 no. (%)
Confusional state (Grade 3, psychiatric disorders): 0 no. (%)
Mental status changes (Grade 3, psychiatric disorders): 0 no. (%)
Acute kidney injury [2]: 0 no. (%)
Urinary retention [2]: 0 no. (%)
Acute respiratory failure [3]: 0 no. (%)
Atelectasis [3]: 2 (2.9) no. (%)
Bronchial obstruction [3]: 0 no. (%)
Bronchopleural fistula [3]: 0 no. (%)
Chronic obstructive pulmonary disease [3]: 1 (1.5) no. (%)
Cough [3]: 0 no. (%)
Dyspnoea [3]: 2 (2.9) no. (%)
Esophago-bronchial fistula [3]: 0 no. (%)
Hemoptysis [3]: 1 (1.5) no. (%)
Hypoxia [3]: 2 (2.9) no. (%)
Interstitial lung disease [3]: 0 no. (%)
Pleural effusion [3]: 4 (5.9) no. (%)
Pneumonia aspiration [3]: 0 no. (%)
Pneumonitis [3]: 1 (1.5) no. (%)
Pulmonary embolism [3]: 1 (1.5) no. (%)
Pulmonary hemorrhage [3]: 0 no. (%)
Respiratory failure [3]: 0 no. (%)
Alopecia [4]: 1 (1.5) no. (%)
Dermatitis exfoliative [4]: 0 no. (%)
Pruritus [4]: 0 no. (%)
Rash [4]: 0 no. (%)
Rash erythematous [4]: 0 no. (%)
Rash maculopapular [4]: 0 no. (%)
Skin erosion [4]: 0 no. (%)
Skin reaction [4]: 0 no. (%)
Skin toxicity [4]: 0 no. (%)
Deep vein thrombosis (Grade 3, vascular disorders): 0 no. (%)
Embolism (Grade 3, vascular disorders): 0 no. (%)
Hypertension (Grade 3, vascular disorders): 0 no. (%)
Jugular vein thrombosis (Grade 3, vascular disorders): 0 no. (%)
Peripheral arterial occlusive disease (Grade 3, vascular disorders): 0 no. (%)
Vena cava embolism (Grade 3, vascular disorders): 0 no. (%)
Acute myocardial infarction (Grade 4): 0 no. (%)
Adenocarcinoma of colon (Grade 4): 0 no. (%)
Alanine aminotransferase increased (Grade 4): 0 no. (%)
Anemia (Grade 4): 0 no. (%)
Anemia macrocytic (Grade 4): 0 no. (%)
Any adverse event (Grade 4): 16 (23.5) no. (%)
Arthralgia (Grade 4): 0 no. (%)
Ascites (Grade 4): 0 no. (%)
Aspergillus infection (Grade 4): 0 no. (%)
Asthenia (Grade 4): 0 no. (%)
Atrial tachycardia (Grade 4): 0 no. (%)
Autoimmune colitis (Grade 4): 0 no. (%)
Back pain (Grade 4): 0 no. (%)
Blood bilirubin increased (Grade 4): 0 no. (%)
Bone pain (Grade 4): 0 no. (%)
Bronchiolitis (Grade 4): 0 no. (%)
Bronchitis (Grade 4): 0 no. (%)
C-reactive protein increased (Grade 4): 0 no. (%)
Cancer pain (Grade 4): 0 no. (%)
Cardiac failure congestive (Grade 4): 0 no. (%)
Cardiac tamponade (Grade 4): 0 no. (%)
Cardiac ventricular thrombosis (Grade 4): 0 no. (%)
Cataract (Grade 4): 0 no. (%)
Chest pain (Grade 4): 0 no. (%)
Cholangitis (Grade 4): 0 no. (%)
Cholecystitis (Grade 4): 0 no. (%)
Cholelithiasis (Grade 4): 0 no. (%)
Clostridium bacteremia (Grade 4): 0 no. (%)
Coronary artery disease (Grade 4): 0 no. (%)
Decreased appetite (Grade 4): 0 no. (%)
Dehydration (Grade 4): 0 no. (%)
Diarrhea (Grade 4): 0 no. (%)
Diverticulitis (Grade 4): 0 no. (%)
Drug hypersensitivity (Grade 4): 0 no. (%)
Encephalitis (Grade 4): 0 no. (%)
Esophagitis (Grade 4): 0 no. (%)
Euthanasia (Grade 4): 0 no. (%)
Fatigue (Grade 4): 0 no. (%)
Febrile neutropenia (Grade 4): 0 no. (%)
Femoral neck fracture (Grade 4): 0 no. (%)
Forced expiratory volume decreased (Grade 4): 0 no. (%)
Gastroenteritis norovirus (Grade 4): 0 no. (%)
Gastroenteritis salmonella (Grade 4): 0 no. (%)
General physical health deterioration (Grade 4): 0 no. (%)
Hematochezia (Grade 4): 0 no. (%)
Hepatic enzyme increased (Grade 4): 0 no. (%)
Hip fracture (Grade 4): 0 no. (%)
Hypercalcemia (Grade 4): 0 no. (%)
Hyperglycemia (Grade 4): 0 no. (%)
Hyperkalaemia (Grade 4): 0 no. (%)
Hypertriglyceridaemia (Grade 4): 0 no. (%)
Hypoalbuminemia (Grade 4): 0 no. (%)
Hypocalcaemia (Grade 4): 0 no. (%)
Hypokalemia (Grade 4): 0 no. (%)
Hyponatremia (Grade 4): 0 no. (%)
Ileus (Grade 4): 0 no. (%)
Infection (Grade 4): 0 no. (%)
Intestinal dilatation (Grade 4): 0 no. (%)
Intestinal hemorrhage (Grade 4): 0 no. (%)
Intestinal perforation (Grade 4): 0 no. (%)
Large intestine perforation (Grade 4): 0 no. (%)
Leukopenia (Grade 4): 0 no. (%)
Liver disorder (Grade 4): 0 no. (%)
Localized oedema (Grade 4): 0 no. (%)
Lung abscess (Grade 4): 0 no. (%)
Lymphocyte count decreased (Grade 4): 0 no. (%)
Lymphopenia (Grade 4): 0 no. (%)
Malignant ascites (Grade 4): 0 no. (%)
Malignant pleural effusion (Grade 4): 0 no. (%)
Malnutrition (Grade 4): 0 no. (%)
